Calls of active or inactive are those of the source. No cut-off for these calls is given here.
How the values were obtained:
[1] = tested on: Human immunodeficiency virus 1; assay: Antiviral activity against HIV1 in human MT4 cells assessed as inhibition of virus-induced cytopathic effect at 100 ug/mL; type: functional, organism-based
MT4 = assay: Cytotoxicity against human MT4 cells at 100 ug/mL; type: cell-based

SMILES: COC(=O)C[C@H]1[C@]2(C)C[C@]3(O)[C@H]4[C@@H](O[C@]56CC(=O)O[C@@H](c7ccoc7)[C@]5(C)CC[C@H]([C@]13C)[C@]46O)[C@H]2O [khayanolide D]
- Activity [1]: inactive
- Activity (MT4): Not Active

SMILES: COC(=O)[C@]1(C)[C@@H]([C@@]2(C)C=CC(=O)C(C)(C)[C@@H]2CO[C@@H]2O[C@H](CO)[C@@H](O)[C@H](O)[C@H]2O)CC[C@@]2(C)[C@H](c3ccoc3)OC(=O)[C@H]3O[C@]321 [KHAYANOSIDE]
- Activity [1]: inactive
- Activity (MT4): Not Active

SMILES: COC(=O)[C@H](O)[C@@H]1[C@@]2(C)[C@H]3CC[C@@]4(C)[C@H](c5ccoc5)OC(=O)C[C@@]45O[C@H]4C(=O)[C@@]1(C)C[C@]2(OC(C)=O)[C@@H]4[C@@]35O [khayanolide E]
- Activity [1]: inactive
- Activity (MT4): Not Active

From ChEMBL document CHEMBL1150622, “Three new modified limonoids from Khaya senegalensis” (J Nat Prod, 2002)
